For data set [1] the following is noted: ACS patients, phase III; cited from earlier work.
In data set [2] the target is T1, PAR4 (Homo sapiens (Human), UniProt Q96RI0). The data set can be described thus: Gamma thrombin induced platelet aggregation assay in PRP (PRP assay). The format is cell-based. An excerpt:
The compounds of the current invention can be tested in vitro for their ability to inhibit platelet aggregation induced by gamma-thrombin as shown in Example C. Gamma-thrombin, a proteolytic product of alpha-thrombin which no longer interacts with PAR1, selectively cleaves and activates PAR4 (Soslau, G. et al., “Unique pathway of thrombin-induced platelet aggregation mediated by glycoprotein Ib”, J. Biol. Chem., 276:21173-21183 (2001)). Platelet aggregation can be monitored in a 96-well microplate aggregation assay format or using standard platelet aggregometer. The aggregation assay can also be employed to test the selectivity of the compound for inhibiting platelet aggregation induced by PAR4 agonist peptides, PAR1 agonist peptide, ADP, or thromboxane analogue U46619.
The platelet rich plasma was isolated by centrifugation at 170 g for 14 minutes.
The ability of the compounds of the current invention to inhibit platelet aggregation induced by gamma-thrombin was tested in a 96-well microplate aggregation assay format. Briefly, PRP or washed platelet suspension (100 μl) was pre-incubated for 5 minutes at room temperature with varying concentrations of compounds. Aggregation was initiated by ˜10-50 nM gamma thrombin (Haematologic Technologies, Essex Junction, Vt.), which was titrated daily to achieve 80% platelet aggregation. Refludan at 1 U/mL (Berlex, Montville, N.J.) was added to the gamma thrombin sample to prevent PAR1 activation induced by residual alpha-thrombin contamination. The plate was then placed into a 37° C. Molecular Devices (Sunnyvale, Calif.) SPECTRAMAX® Plus Plate Reader. […] Data was collected with SOFTMAX® 4.71 software. The plate also included an untreated control sample which served as ODmax, while buffer containing no platelets was the ODmin. Platelet aggregation was determined by subtracting the ODmax from the ODmin for the 100% aggregation value. In experimental samples, the observed transmission was subtracted from the minimum value and then compared to the 100% aggregation value to determine the percentage aggregation. IC50 values are determined using Excel Fit software.
As indicated above, the PRP assay, an in vitro assay, measures the PAR4 antagonist activity of compounds tested as described in Example C.

Data set [3] concerns the target T1, PAR4. The experiment in a line: FLIPR assay in PAR4-expressing HEK293 cells (PAR4 antagonist activity, calcium mobilization). Conditions: FLIPR assay as described in Example A. The format is cell-based. The gist of the method: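 HEK293 cells stably expressing human PAR4 (also endogenous PAR1) in HBSS/10 mM HEPES, 0.67% DMSO final. Compound added and read for agonist activity, then 30 min room temperature before PAR4 agonist peptide; intracellular calcium mobilization monitored by FDSS/FLIPR.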
For orientation: Calcium flux is commonly read through the fluorescence of an indicator in the cells.

Data set [4] has as its system human washed platelets. The data set can be described thus: Alpha-thrombin induced platelet aggregation assay. The format is cell-based. Conditions: for IC50: Homo sapiens, Platelet, 0.1 h, AUC at 6 min, read-out: IC50 for the inhibition of platelet aggregation. How it is done:
Example D is an alpha-thrombin-induced platelet aggregation assay. Alpha-thrombin activates both PAR1 and PAR4.
Human blood was collected in ACD (85 mM tri-sodium citrate, 78 mM citric acid, 110 mM D-glucose, pH 4.4) at a ratio of 1.4 ml per 10 ml blood. PRP was isolated by centrifugation at 170 g for 14 minutes and platelets were further pelleted by centrifugation at 1300 g for 6 minutes. Platelets were washed once with 10 ml ACD containing 1 mg/ml bovine serum albumin. Platelets were resuspended at ˜2.5×10^8/ml in Tyrode's Buffer (137 mM NaCl, 2 mM KCl, 1.0 mM MgCl2, 1 mM CaCl2, 5 mM glucose, 20 mM HEPES pH 7.4).
The ability of PAR4 antagonist to inhibit platelet aggregation induced by alpha-thrombin was tested using human washed platelets. […] Aggregation was initiated by addition of 2.5 or 5 nM alpha-thrombin (Haematologic Technologies, Essex Junction, Vt.) to 240 μl of washed platelets at stirring speed of 1200 rpm. […] IC50 was calculated using vehicle control as 0% inhibition.

Molecules are shown by their SMILES. Read-outs that look alike come from different tables or passages of the source.

T1 sequence (Q96RI0 18-385): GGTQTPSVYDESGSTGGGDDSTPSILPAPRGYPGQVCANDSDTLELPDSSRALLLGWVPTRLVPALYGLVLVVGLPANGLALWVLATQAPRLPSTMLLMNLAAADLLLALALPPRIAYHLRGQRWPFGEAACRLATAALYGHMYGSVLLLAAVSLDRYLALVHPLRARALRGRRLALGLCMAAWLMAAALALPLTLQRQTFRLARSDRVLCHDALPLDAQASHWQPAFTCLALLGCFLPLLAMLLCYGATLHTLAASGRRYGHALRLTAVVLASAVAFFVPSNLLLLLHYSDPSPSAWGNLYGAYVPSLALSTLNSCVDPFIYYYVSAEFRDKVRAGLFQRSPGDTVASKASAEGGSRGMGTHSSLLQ

Regarding `CCOC(=O)N[C@@H]1CC[C@@H]2[C@@H](C1)C[C@H]1C(=O)O[C@H](C)[C@H]1[C@H]2/C=C/c1ccc(-c2cccc(F)c2)cn1` [vorapaxar], in data set [1], the cardiovascular events entry is reported as “did not significantly reduce cardiovascular events” and the “risk of major bleeding” value is reported as “significantly increased the risk of major bleeding”.

One may read the IC50 as the concentration needed to halve the response being measured. In the case of `COc1cc(OCc2cccc(OCc3ccc(C(C)(C)C)cc3)c2)c2cc(-c3cn4nc(OC)sc4n3)oc2c1` [Example 393], the IC50 in data set [2] amounted to 2500 nM; in data set [3], 35.9 nM.

Regarding `COc1nn2cc(-c3cc4c(OCc5cccc(OCc6ccccc6)c5)cc(OC)c(Cl)c4o3)nc2s1` [Example 415, 6-(4-((3-(Benzyloxy)benzyl)oxy)-7-chloro-6-methoxybenzofuran-2-yl)-2-methoxyimidazo[2,1-b][1,3,4]thiadiazole], the values for the IC50 in data set [2] and in data set [3] were 3270 nM and 513 nM, respectively.

With `COc1cc(OCc2cc(Cl)cc(OCc3ccccc3)c2)c2cc(-c3cn4nc(OC)sc4n3)oc2c1` [Example 402], the IC50 came out at 151 nM in data set [2] and 6.2 nM in data set [3].

For the molecule `COc1cc(OCc2ccc(F)cc2)c2cc(-c3cn4nc(C(C)(F)F)sc4n3)oc2c1` [Example 304], the IC50 in data set [2] is above 30000 nM; in data set [3], 55.6 nM.

In the case of `CCOc1nn2cc(-c3nc4ccccc4s3)nc2s1` [Example 27], the IC50 was above 30000 nM in data set [2] and 1780 nM in data set [3].

`COc1cc(OCc2cccc(OCc3ccc(OC(F)(F)F)cc3)c2)c2cc(-c3cn4nc(OC)sc4n3)oc2c1` [Example 394]: the IC50 in data set [2] is 616 nM; in data set [3], 3.68 nM.

Regarding `CCc1nn2cc(-c3nc4ccc(OC)cc4o3)nc2s1` [Example 39], the IC50 in data set [2] is above 30000 nM; in data set [3] it was 220 nM.

As for `CSc1nn2cc(-c3cc4c(OCc5ccccc5)cc(OCc5ccccc5)cc4o3)nc2s1` [Example 253], the IC50 in data set [2] is above 30000 nM; in data set [3] it was 114 nM.

For `COc1nn2cc(-c3oc4c(OC)c(OC)ccc4c3C)nc2s1` [Example 36], the IC50 was above 30000 nM in data set [2] and 1660 nM in data set [3].

Regarding `COc1cc(OCc2ccccc2)c2cc(-c3cn4nc(OC)sc4n3)oc2c1` [Example 203, 6-(4-(Benzyloxy)-6-methoxybenzofuran-2-yl)-2-methoxyimidazo[2,1-b][1,3,4]thiadiazole], the “inhibition of alpha-thrombin-induced platelet aggregation (FIG. 2)” value in data set [4] (5 nM alpha-thrombin) was “dose-dependent inhibition”. In addition, the IC50 in data set [4] (5 nM alpha-thrombin, n=3) stood at 6900 ± 300 nM; in data set [4] ([…] alpha-thrombin, n=4), 1100 ± 900 nM.

Regarding `COc1cccc2cc(-c3cn4nc(SC)sc4n3)oc12` [Example 14], the IC50 in data set [2] was 9440 nM; in data set [3], 8.68 nM.

As to `COc1nn2cc(-c3cc4c(OCc5cccc(OCc6cccc(C)c6)c5)c(Cc5ccccc5)c(OC)cc4o3)nc2s1` [Example 387], the IC50 in data set [2] is 2400 nM; in data set [3], 41.5 nM.

On to `COc1nn2cc(-c3nc4c(C)cccc4o3)nc2s1` [Example 129], for which the values for the IC50 in data set [2] and in data set [3] were above 30000 nM and 32 nM, respectively.

With `COc1ccc2nc(-c3cn4nc(OC)sc4n3)oc2c1` [Example 164], the IC50 in data set [2] came to 9160 nM; in data set [3], 15.4 nM.

With `CCOc1cc(OCc2cccc(OCc3ccccc3)c2)c2cc(-c3cn4nc(OC)sc4n3)oc2c1` [Example 426], the IC50 in data set [2] is 566 nM; in data set [3], 4.56 nM.

Regarding `COc1ccc(Br)c2cc(-c3cn4nc(SC)sc4n3)oc12` [Example 282], the IC50 is 5630 nM in data set [2] and 49.6 nM in data set [3].

As for `COc1cc(OCc2cccc(OCc3ccccc3)c2)c2cc(-c3cn4nc([C@H](C)F)sc4n3)oc2c1` [Example 407], the results for the IC50 in data set [2] and in data set [3] were 462 nM and 1.12 nM, respectively.

Turning to `COc1cc(OCc2cccc(OCc3c(F)cccc3Cl)c2)c2cc(-c3cn4nc(OC)sc4n3)oc2c1` [Example 370], the 50% inhibitory concentration (IC50) in data set [2] came to 151 nM; in data set [3], 5.3 nM.

On to `Brc1nn2cc(-c3cc4ccccc4o3)nc2s1` [Example 68], for which the IC50 was determined as 16700 nM in data set [2] and 55.3 nM in data set [3].

For `COc1cc(OCc2cccc(OCc3cccc(C)n3)c2)c2cc(-c3cn4nc(OC)sc4n3)oc2c1` [Example 307], the IC50 was found to be 101 nM in data set [2] and 9.23 nM in data set [3].

In the case of `COc1cc(OCc2cccc(OCc3ccnc(Cl)c3)c2)c2cc(-c3cn4nc(OC)sc4n3)oc2c1` [Example 320], the IC50 in data set [2] was 75.5 nM; in data set [3] it was 3.93 nM.

For `CSc1nn2cc(-c3nc4c(OC[C@@H]5CCCN5C(=O)[C@H](NC(=O)c5ccccc5)c5ccccc5)cccc4o3)nc2s1` [Example 337, N—((R)-2-((S)-2-(((2-(2-(Methylthio)imidazo[2,1-b][1,3,4]thiadiazol-6-yl)benzo[d]oxazol-4-yl)oxy)methyl)pyrrolidin-1-yl)-2-oxo-1-phenylethyl)benzamide], the IC50 was above 30000 nM in data set [2] and 401 nM in data set [3].

On to `COc1ccc2oc(-c3cn4nc(SC)sc4n3)cc2c1` [Example 16], for which the results for the IC50 in data set [2] and in data set [3] were above 30000 nM and 369 nM, respectively.

In the case of `COc1cc(OCc2cccc(OCc3ccc(F)c(F)c3F)c2)c2cc(-c3cn4nc(OC)sc4n3)oc2c1` [Example 325], the values for the IC50 in data set [2] and in data set [3] were 86.2 nM and 1.64 nM, respectively.

Regarding `COc1cc(COc2cccc(COc3cc(OC)cc4oc(-c5cn6nc(OC)sc6n5)cc34)c2)cc(OCc2ccccc2)c1` [Example 373], the results for the IC50 in data set [2] and in data set [3] were 2500 nM and 7.63 nM, respectively.

On to `COc1cc(OCc2cccc(OCc3cccc(OCc4ccccc4)c3)c2)c2cc(-c3cn4nc(OC)sc4n3)oc2c1` [Example 383], for which the IC50 in data set [2] worked out at 594 nM; in data set [3], 8.68 nM.

Take `CSc1nn2cc(-c3cc4cccc(C)c4o3)nc2s1` [Example 22]: the IC50 amounted to 8760 nM in data set [2] and 217 nM in data set [3].

As for `COc1cc(OCc2ccc(F)cc2)c2cc(-c3cn4nc(Br)sc4n3)oc2c1` [Example 302], the IC50 in data set [2] is above 30000 nM; in data set [3], 195 nM.

In the case of `COc1cc(OCc2cccc(OCc3cccnc3)c2)c2cc(-c3cn4nc(OC)sc4n3)oc2c1` [Example 398], the IC50 in data set [2] came to 66.2 nM; in data set [3], 2.14 nM.

As to `COc1cc(OCc2cccc(OCc3ccccc3F)c2)c2cc(-c3cn4nc(OC)sc4n3)oc2c1` [Example 318], the IC50 is 36.5 nM in data set [2] and 1.92 nM in data set [3].

Take `COc1cc(OCc2cccc(OCc3csc(C)n3)c2)c2cc(-c3cn4nc(OC)sc4n3)oc2c1` [Example 399]: the IC50 in data set [2] came out at 4.95 nM; in data set [3] it was 0.59 nM.

Regarding `COc1cc(OCc2cccc(OCc3cccc(C)c3)c2)c2cc(-c3cn4nc(OC)sc4n3)oc2c1` [Example 386], the IC50 in data set [2] was determined as 55 nM; in data set [3] it was 1.77 nM.

`COc1cc(OCc2cccc(OCc3ccccc3CCc3ccccc3)c2)c2cc(-c3cn4nc(OC)sc4n3)oc2c1` [Example 364]: the IC50 in data set [2] was 5820 nM; in data set [3] it was 10.5 nM.

Consider `CSc1nn2cc(-c3nc4c(OC(C)C)cccc4o3)nc2s1` [Example 159], for which the figures for the IC50 in data set [2] and in data set [3] were above 30000 nM and 28.4 nM, respectively.

With `COc1nn2cc(-c3nc4cc(F)ccc4o3)nc2s1` [Example 135], the IC50 in data set [2] was above 30000 nM; in data set [3] it was 49.6 nM.

In the case of `COc1ccc(COc2cccc(COc3cc(OC)cc4oc(-c5cn6nc(OC)sc6n5)cc34)c2)cc1` [Example 392], the IC50 in data set [2] worked out at 105 nM; in data set [3], 1.44 nM.
